From patent US4604239A, “Antibiotics” (Eli Lilly and Company, priority 1985, dated 1986)
In brackets after ≈: the same amount, converted by molar mass. Where two headings read alike, the source gives them in different places.

Assays:
[1] = system: Hemophilus influenzae; experiment: agar-dilution MIC; assay type: cell-based
[2] = system: Bacteroides fragilis; experiment: agar-dilution MIC; assay type: cell-based
Source text: (§1) The agar-dilution procedure described by the International Collaborative study (ICS) group was used to determine the minimum inhibitory concentrations (MIC's).

[3] = system: Staphylococcus epidermidis; experiment: agar-dilution MIC; assay type: cell-based
Source text: as §1

[4] = system: Streptococcus pneumoniae; experiment: agar-dilution MIC; assay type: cell-based
Source text: as §1

[5] = system: Streptococcus pyogenes; experiment: agar-dilution MIC; assay type: cell-based; conditions: Streptococcus pyogenes C203; Table 17
Source text: as §1

[6] = system: Bacteroides corrodens; experiment: agar-dilution MIC; assay type: cell-based; conditions: B. corrodens 1874; 24-hour; Table 12
Source text: (§2) The A41030 antibiotics, factors A, B, and C, are active against a genus of anaerobic bacteria identified as Bacteroides sp., the 24-hour MIC values being determined by the agar-dilution method, and are set forth in Table 12, which follows.

[7] = system: Bacteroides vulgatis; experiment: agar-dilution MIC; assay type: cell-based; conditions: B. vulgatis 1563; 24-hour; Table 12
Source text: as §2

[8] = system: Propionibacterium acnes; experiment: agar-dilution MIC; assay type: cell-based
Source text: Antibiotic A41030 factors A, B and C have also been tested and found to be active against a genus of anaerobic bacteria identified as Propionibacterium acnes.

[9] = system: Clostridium difficile; assay type: cell-based
[10] = system: Clostridium perfringens; assay type: cell-based; conditions: Clostridium perfringens 81; Table 14
[11] = system: Clostridium septicum; experiment: agar-dilution MIC; assay type: cell-based; conditions: Clostridium septicum 1128; Table 14
[12] = system: Peptococcus asaccharolyticus; experiment: agar-dilution MIC; assay type: cell-based
Method: (§3) The MIC values were determined by the agar-dilution method, and are recorded in Table 15, which follows.

[13] = system: Peptococcus constellatus; experiment: agar-dilution MIC; assay type: cell-based; conditions: Pc. constellatus 1468; Table 15
Method: as §3

[14] = system: Peptococcus magnus; experiment: agar-dilution MIC; assay type: cell-based; conditions: Pc. magnus 1477; Table 15
Method: as §3

[15] = system: Peptococcus prevoti; experiment: agar-dilution MIC; assay type: cell-based; conditions: Table 15
Method: as §3

[16] = system: Peptostreptococcus anaerobius; experiment: agar-dilution MIC; assay type: cell-based
[17] = system: Peptostreptococcus intermedius; experiment: agar-dilution MIC; assay type: cell-based
[18] = system: Fusobacterium symbiosum; experiment: agar-dilution MIC; assay type: cell-based; conditions: Fusobacterium symbiosum 1470; Table 14
[19] = system: Fusobacterium necrophorum; experiment: agar-dilution MIC; assay type: cell-based; conditions: Fusobacterium necrophorum 6054A; Table 14
[20] = solubility; assay type: physicochemical
[21] = system: Peptococcus prevoti; experiment: agar-dilution MIC; assay type: cell-based

`N[C@H]1C(=O)N[C@@H]2Cc3ccc(c(Cl)c3)Oc3cc4cc(c3O)Oc3ccc(cc3Cl)[C@@H](O)[C@@H]3NC(=O)C(NC(=O)[C@@H]4NC(=O)[C@@H](NC2=O)c2cc(O)cc(c2)Oc2cc1ccc2O)c1ccc(O)c(c1)-c1c(O)cc(O)cc1[C@@H](C(=O)O)NC3=O` [A41030 factor B] gave an MIC ([1]; Haemophilus influenzae 76, end point after 24 hours, Table 18) of 4 mg/L (≈ 3.34 µM), an MIC ([1]; Haemophilus influenzae 251, Table 17) of 2 mg/L (≈ 1.67 µM) and an MIC ([1]; Haemophilus influenzae 312, end point after 24 hours, Table 18) of 4 mg/L (≈ 3.34 µM). It also gave an MIC ([1]; Haemophilus influenzae 4842, end point after 24 hours, Table 18) of 4 mg/L (≈ 3.34 µM), an MIC ([1]; Haemophilus influenzae 16836, end point after 24 hours, Table 18) of 4 mg/L (≈ 3.34 µM) and an MIC ([1]; Haemophilus influenzae Bond, end point after 24 hours, Table 18) of 4 mg/L (≈ 3.34 µM). It also gave an MIC ([1]; Haemophilus influenzae Brun, Table 17) of 8 mg/L (≈ 6.67 µM), an MIC ([1]; Haemophilus influenzae C.L., end point after 24 hours, Table 18) of 8 mg/L (≈ 6.67 µM) and an MIC ([1]; Haemophilus influenzae Mx366, end point after 24 hours, Table 18) of 4 mg/L (≈ 3.34 µM). The MIC ([1]; Haemophilus influenzae Mx371, end point after 24 hours, Table 18) was 4 mg/L (≈ 3.34 µM), the MIC ([2]; B. fragilis 2, 24-hour, Table 12) was 32 mg/L (≈ 26.7 µM) and the MIC ([2]; B. fragilis 9, 24-hour, Table 12) was 32 mg/L (≈ 26.7 µM). For the same compound, the MIC ([2]; B. fragilis 103, 24-hour, Table 12) was 32 mg/L (≈ 26.7 µM), the MIC ([2]; B. fragilis 104, 24-hour, Table 12) was 32 mg/L (≈ 26.7 µM) and the MIC ([2]; B. fragilis 106, 24-hour, Table 12) was 32 mg/L (≈ 26.7 µM). For the same compound, the MIC ([2]; B. fragilis 107, 24-hour, Table 12) was 32 mg/L (≈ 26.7 µM), the MIC ([2]; B. fragilis 108, 24-hour, Table 12) was 32 mg/L (≈ 26.7 µM) and the MIC ([2]; B. fragilis 110, 24-hour, Table 12) was 64 mg/L (≈ 53.4 µM). The MIC ([2]; B. fragilis 111, 24-hour, Table 12) was 32 mg/L (≈ 26.7 µM), the MIC ([2]; B. fragilis 112, 24-hour, Table 12) was 32 mg/L (≈ 26.7 µM) and the MIC ([2]; B. fragilis 113, 24-hour, Table 12) was 32 mg/L (≈ 26.7 µM). The MIC ([2]; B. fragilis 1451, 24-hour, Table 12) was 64 mg/L (≈ 53.4 µM), the MIC ([2]; B. fragilis 1470, 24-hour, Table 12) was 64 mg/L (≈ 53.4 µM) and the MIC ([2]; B. fragilis 1877, 24-hour, Table 12) was 32 mg/L (≈ 26.7 µM). It also gave an MIC ([2]; B. fragilis 9032, 24-hour, Table 12) of 32 mg/L (≈ 26.7 µM), an MIC ([2]; Bacteroides fragilis 111, Table 14) of 64 mg/L (≈ 53.4 µM) and an MIC ([2]; Bacteroides fragilis 1877, Table 14) of 32 mg/L (≈ 26.7 µM). The MIC ([2]; Bacteroides fragilis 1936B, Table 14) was 32 mg/L (≈ 26.7 µM), the MIC ([3]; Staphylococcus epidermidis 219, end point after 24 hours, Table 18) was 0.03 mg/L (≈ 0.025 µM) and the MIC ([3]; Staphylococcus epidermidis 269, end point after 24 hours, Table 18) was 0.03 mg/L (≈ 0.025 µM). It also gave an MIC ([3]; Staphylococcus epidermidis 270, end point after 24 hours, Table 18) of 0.06 mg/L (≈ 0.05 µM), an MIC ([3]; Staphylococcus epidermidis 285, end point after 24 hours, Table 18) of 0.03 mg/L (≈ 0.025 µM) and an MIC ([3]; Staphylococcus epidermidis EPI2, Table 17) of 0.5 mg/L (≈ 0.417 µM). For the same compound, the MIC ([4]; Streptococcus pneumoniae B1-438, end point after 24 hours, Table 18) was 0.5 mg/L (≈ 0.417 µM), the MIC ([4]; Streptococcus pneumoniae Park I, Table 17) was 0.5 mg/L (≈ 0.417 µM) and the MIC [5] was 0.25 mg/L (≈ 0.209 µM). For the same compound, the MIC [6] was 32 mg/L (≈ 26.7 µM), the MIC [7] was 32 mg/L (≈ 26.7 µM) and the MIC ([8]; P. acnes 44, 24-hour, Table 13) was 0.06 mg/L (≈ 0.05 µM). The MIC ([8]; P. acnes 79, 24-hour, Table 13) was 0.06 mg/L (≈ 0.05 µM), the MIC ([8]; P. acnes 101, 24-hour, Table 13) was 0.06 mg/L (≈ 0.05 µM) and the MIC ([8]; P. acnes 103, 24-hour, Table 13) was 0.06 mg/L (≈ 0.05 µM). For the same compound, the MIC ([8]; P. acnes 104, 24-hour, Table 13) was 0.25 mg/L (≈ 0.209 µM), the MIC ([8]; P. acnes 105, 24-hour, Table 13) was 0.06 mg/L (≈ 0.05 µM) and the MIC ([8]; P. acnes 106, 24-hour, Table 13) was 0.06 mg/L (≈ 0.05 µM). For the same compound, the MIC ([8]; P. acnes 107, 24-hour, Table 13) was 0.06 mg/L (≈ 0.05 µM), the MIC ([8]; P. acnes 5170, 24-hour, Table 13) was at most 0.03 mg/L and the MIC ([8]; P. acnes 5176, 24-hour, Table 13) was 0.06 mg/L (≈ 0.05 µM). For the same compound, the MIC ([8]; P. acnes 5187, 24-hour, Table 13) was 0.06 mg/L (≈ 0.05 µM), the MIC ([8]; P. acnes 5191, 24-hour, Table 13) was 0.06 mg/L (≈ 0.05 µM) and the MIC ([8]; P. acnes 5197, 24-hour, Table 13) was 0.06 mg/L (≈ 0.05 µM). It also gave an MIC ([8]; P. acnes 5226, 24-hour, Table 13) of 0.5 mg/L (≈ 0.417 µM), an MIC ([8]; P. acnes 5227, 24-hour, Table 13) of 0.06 mg/L (≈ 0.05 µM) and an MIC ([8]; P. acnes 5228, 24-hour, Table 13) of 0.5 mg/L (≈ 0.417 µM). The MIC ([8]; P. acnes 5229, 24-hour, Table 13) was 0.25 mg/L (≈ 0.209 µM), the MIC ([8]; P. acnes 5292, 24-hour, Table 13) was 0.06 mg/L (≈ 0.05 µM) and the MIC ([8]; Propionibacterium acnes 79, Table 14) was 16 mg/L (≈ 13.3 µM). The MIC ([9]; Clostridium difficile 78, Table 16) was 0.5 mg/L (≈ 0.417 µM), the MIC ([9]; Clostridium difficile 107B, Table 16) was 0.5 mg/L (≈ 0.417 µM) and the MIC ([9]; Clostridium difficile 111F, Table 16) was 1.0 mg/L (≈ 0.834 µM). The MIC ([9]; Clostridium difficile 1153, Table 16) was 1.0 mg/L (≈ 0.834 µM), the MIC ([9]; Clostridium difficile 2634, Table 16) was 1.0 mg/L (≈ 0.834 µM) and the MIC ([9]; Clostridium difficile 2994, Table 14) was 32 mg/L (≈ 26.7 µM). For the same compound, the MIC ([9]; Clostridium difficile 3424-5B, Table 16) was 1.0 mg/L (≈ 0.834 µM), the MIC ([9]; Clostridium difficile 3816, Table 16) was 1.0 mg/L (≈ 0.834 µM) and the MIC ([9]; Clostridium difficile 3950D, Table 16) was 1.0 mg/L (≈ 0.834 µM). It also gave an MIC ([9]; Clostridium difficile 6890, Table 16) of 1.0 mg/L (≈ 0.834 µM), an MIC ([9]; Clostridium difficile 8484, Table 16) of 1.0 mg/L (≈ 0.834 µM) and an MIC ([9]; Clostridium difficile A-194, Table 16) of 1.0 mg/L (≈ 0.834 µM). For the same compound, the MIC ([9]; Clostridium difficile A-195, Table 16) was 1.0 mg/L (≈ 0.834 µM), the MIC ([9]; Clostridium difficile A-196, Table 16) was 1.0 mg/L (≈ 0.834 µM) and the MIC ([9]; Clostridium difficile A-279, Table 16) was 1.0 mg/L (≈ 0.834 µM). For the same compound, the MIC ([9]; Clostridium difficile A-280, Table 16) was 0.5 mg/L (≈ 0.417 µM), the MIC ([9]; Clostridium difficile A-281, Table 16) was 1.0 mg/L (≈ 0.834 µM) and the MIC ([9]; Clostridium difficile WAL-2112, Table 16) was 1.0 mg/L (≈ 0.834 µM). The MIC ([9]; Clostridium difficile WAL-3657, Table 16) was 1.0 mg/L (≈ 0.834 µM), the MIC ([9]; Clostridium difficile WAL-4268, Table 16) was 0.5 mg/L (≈ 0.417 µM) and the MIC [10] was 0.5 mg/L (≈ 0.417 µM). It also gave an MIC [11] of 4 mg/L (≈ 3.34 µM), an MIC ([12]; Pc. asaccharolyticus 1344, Table 15) of 0.5 mg/L (≈ 0.417 µM) and an MIC ([12]; Peptococcus asaccharolyticus 1302, Table 14) of at most 0.25 mg/L. It also gave an MIC [13] of 0.5 mg/L (≈ 0.417 µM), an MIC [14] of 0.25 mg/L (≈ 0.209 µM) and an MIC ([15]; Pc. prevoti 1293) of 0.25 mg/L (≈ 0.209 µM). It also gave an MIC ([15]; Pc. prevoti 1407) of 0.5 mg/L (≈ 0.417 µM), an MIC ([16]; Peptostreptococcus anaerobius 1428, Table 14) of at most 0.25 mg/L and an MIC ([16]; Ps. anaerobius 8, Table 15) of 0.25 mg/L (≈ 0.209 µM). For the same compound, the MIC ([16]; Ps. anaerobius 52, Table 15) was 0.5 mg/L (≈ 0.417 µM), the MIC ([16]; Ps. anaerobius 59, Table 15) was 0.25 mg/L (≈ 0.209 µM) and the MIC ([16]; Ps. anaerobius 1418, Table 15) was 0.06 mg/L (≈ 0.05 µM). For the same compound, the MIC ([16]; Ps. anaerobius 1428, Table 15) was 0.25 mg/L (≈ 0.209 µM), the MIC ([16]; Ps. anaerobius 1451, Table 15) was 0.25 mg/L (≈ 0.209 µM) and the MIC ([17]; Peptostreptococcus intermedius 1264, Table 14) was 0.5 mg/L (≈ 0.417 µM). For the same compound, the MIC ([17]; Ps. intermedius 1264, Table 15) was at most 0.03 mg/L, the MIC ([17]; Ps. intermedius 1524, Table 15) was 0.25 mg/L (≈ 0.209 µM) and the MIC ([17]; Ps. intermedius 1624, Table 15) was 0.5 mg/L (≈ 0.417 µM). The MIC [18] was 1.0 mg/L (≈ 0.834 µM), the MIC [19] was 8 mg/L (≈ 6.67 µM) and the “solubility (solvents)” value [20] was “soluble in the same solvents as factor A”. For the same compound, the MIC ([21]; Pc. prevoti 1281, Table 15) was 0.5 mg/L (≈ 0.417 µM) and the MIC ([21]; Peptococcus prevoti 1281, Table 14) was at most 0.25 mg/L.
